Data from US10294212B2 (CURADEV PHARMA PRIVATE LTD., priority 2013, dated 2019).

Experiments:
IDO1 in HeLa cells = IDO1 in HeLa cells (Homo sapiens (Human), UniProt P14902); test: HeLa cell based IDO1 assay (IFNγ-induced, KYN in supernatant)
Method: HeLa cells were obtained from ATCC and maintained in DMEM supplemented with sodium bicarbonate (2.1 g/L), HEPES (4.1 g/L), L-glutamine (2 mM), non-essential amino acid (84 mg/L) and fetal bovine serum (10% FBS) and maintained at 95% humidity and 5% CO2 in a 37° C. incubator. Unless otherwise stated, all materials were procured from Sigma. Upon incubation with gamma-interferon (IFNγ ), HeLa cells express IDO1, which catalyzes the formation of N-formyl kynurenine from tryptophan present in growth medium. The assay was performed as follows:
Cells were plated in medium (300 μL) at a density of 0.1 million per well of a 48 well plate and hIDO1 was induced by overnight treatment with IFNγ (50 ng/mL) (Peprotech, USA). The following day, cells were washed to remove IFNγ and were incubated with specific concentrations of test compounds (typically 10 μM to 1 nM, final volume 300 μL) in Hanks Balanced Salt Solution (HBSS) containing 80 μM L-tryptophan. Following incubation, supernatant (150 μL) was transferred to a 96 well plate into which 30%TCA (304) was added and the contents further incubated at 65° C. for 15 min to fully convert N-formylkynurenine to kynurenine. The reaction mixture was then centrifuged to remove sediments and the KYN in the supernatant was estimated by UV-visible absorption spectroscopy at 360 nm using a Waters HPLC system fitted with a C-18 column. (Xiangdong Liu et al. Blood 2010, Vol-117, 3520-30; Sono described above).
(§1) Percent inhibition at each concentration of test compounds was determined by estimating the decrease in KYN with reference to the reaction control with 1% DMSO vehicle. Data were analyzed using nonlinear regression to generate IC50 values using Graph Pad Prism® 5.

[1] = target: Human TDO (hTDO)-transfected CHO-K1 cells (Homo sapiens (Human), UniProt P48775); test: CHO-K1 cell based TDO assay; details: hTDO cellular assay
Sequence of Human TDO (hTDO)-transfected CHO-K1 cells (P48775 whole entry): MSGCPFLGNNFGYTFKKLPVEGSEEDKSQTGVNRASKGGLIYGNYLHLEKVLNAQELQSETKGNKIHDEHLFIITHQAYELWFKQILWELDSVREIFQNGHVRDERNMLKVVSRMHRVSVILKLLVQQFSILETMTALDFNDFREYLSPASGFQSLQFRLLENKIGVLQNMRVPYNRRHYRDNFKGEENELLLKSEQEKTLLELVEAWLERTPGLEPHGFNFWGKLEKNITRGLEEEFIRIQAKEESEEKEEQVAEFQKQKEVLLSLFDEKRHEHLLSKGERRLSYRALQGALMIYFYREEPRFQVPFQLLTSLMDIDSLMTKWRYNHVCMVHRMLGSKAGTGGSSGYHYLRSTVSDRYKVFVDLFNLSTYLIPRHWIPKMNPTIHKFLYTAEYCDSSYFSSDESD
Method: Human TDO (hTDO)-transfected CHO-K1 cells were used to identify test compounds that inhibit TDO activity and reduce Kynurenine production. CHO-K1 cells (ATCC) were cultured in DMEM supplemented with sodium bicarbonate (2.1 g/L), HEPES (4.1 g/L), L-glutamine (2 mM), non-essential amino acid (84 mg/L) and fetal bovine serum (10%) and maintained at 95% humidity and 5% CO2 in a 37° C. incubator. The TDO gene (TDO2) (Accession number NM_005651.1) was purchased from Origene (USA) and stably expressed in CHO-Kl cells using the expression vector pcDNA4/Myc-HisB Hygro (Life Technologies, USA). TDO-expressing clones were identified based on the kynurenine production by the cells. Expanded clones were used for assay as described below. Unless otherwise stated, all materials were procured from Sigma.
hTDO transfected CHO-K1 cells (0.05 million/well) were seeded in a 96-well plate and maintained overnight in DMEM containing 10% FBS (200 μL) at 95% humidity and 5% CO2 in a 37° C. incubator. The following day, cells were washed and incubated with test compounds (typically 31 μM to 10 nM, final volume 150 μL) in Hanks Balanced Salt Solution (HBSS) containing 80 μM L-tryptophan for 2 hours. Supernatant (150 μL) from the cells was treated with 30% TCA ([…]) to precipitate proteins. Supernatants were further incubated at 65° C. for 15 min to convert N-formylkynurenine to kynurenine. KYN in the supernatant was measured by LC/MS/MS using an API4000 mass spectrometer (Applied Biosystems) coupled to a Shimadzu Prominence LC system fitted with a C18 column.
Percent inhibition of the test compounds was determined by measuring the decrease in KYN as compared to the reaction control (DMSO vehicle). IC50 values were calculated using Graph Pad Prism® 5 as described above.

[2] = target: Human indoleamine 2,3-dioxygenase1 (hIDO1) (Homo sapiens (Human), UniProt P14902); test: In-vitro IDO1 enzyme assay (conversion of L-tryptophan to KYN); type: biochemical; details: read-out: IC50 (IDO1) Enz
Sequence of Human indoleamine 2,3-dioxygenase1 (hIDO1) (P14902 whole entry): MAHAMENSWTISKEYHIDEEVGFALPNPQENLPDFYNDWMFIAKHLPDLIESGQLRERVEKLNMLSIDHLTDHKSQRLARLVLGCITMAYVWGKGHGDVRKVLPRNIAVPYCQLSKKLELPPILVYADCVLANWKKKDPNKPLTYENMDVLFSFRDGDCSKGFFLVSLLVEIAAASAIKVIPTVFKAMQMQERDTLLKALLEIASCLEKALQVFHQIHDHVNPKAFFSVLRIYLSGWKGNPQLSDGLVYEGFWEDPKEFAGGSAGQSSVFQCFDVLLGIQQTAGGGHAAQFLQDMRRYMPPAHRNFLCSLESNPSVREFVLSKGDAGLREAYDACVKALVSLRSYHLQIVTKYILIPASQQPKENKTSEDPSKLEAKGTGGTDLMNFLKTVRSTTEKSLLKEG
Text: Human indoleamine 2,3-dioxygenasel (hIDO1) catalyzes the oxidative cleavage of the pyrrole ring of the indole nucleus of tryptophan to yield N-formylkynurenine which can be converted to kynurenine (KYN) by deformylation. hIDO1 with an N-terminal His tag, expressed and purified from E. coli cells was procured from either Enzo LifeScienccs, NY, USA). Unless otherwise stated, all materials were procured from Sigma Aldrich, Mo., USA.
The assay monitoring the conversion of L-tryptophan to KYN was carried out as follows. hIDO1 (10 nM) was incubated with tryptophan (30 μM) in the presence of ascorbic acid (20 mM), methylene blue (10 μM) and catalase (100 μg/mL) in potassium phosphate buffer (50 mM; pH 6.5) at 37C for 30 min. The reaction was terminated with 30% trichloroacetic acid (TCA) and further incubated at 65C for 15 min to fully convert N-formylkynurenine to KYN. The reaction mixture was then centrifuged to remove sediments and the KYN in the supernatant was estimated by UV-visible absorption spectroscopy at 360 nm using a Waters HPLC system fitted with a C-18 column or by LC/MS/MS. See, Sono, 1980, J. Biol. Chem., 255:1339-1345, which is herein incorporated by reference.
as §1

Sequence of IDO1 in HeLa cells (P14902 whole entry): as above

| Compound | IC50 (IDO1 in HeLa cells) [nM] | IC50 [1] [nM] | IC50 [2] [nM] |
| --- | --- | --- | --- |
| 2-Amino-3-((3-chloro-4-fluorophenyl)amino)furo[2,3-c]pyridine-7-carbonitrile [Compound 106] | > 1000 | 500 to 2000 | > 1000 |
| Nc1oc2cnccc2c1Nc1ccccc1 [Compound 3, N^3-Phenylfuro[2,3-c]pyridine-2,3-diamine] | < 200 | < 500 | 200 to 1000 |
| Nc1oc2cnccc2c1Nc1ccccc1Cl [Compound 4, N^3-(2-Chlorophenyl)furo[2,3-c]pyridine-2,3-diamine] | < 200 | > 2000 | > 1000 |
| Nc1oc2cnccc2c1Nc1ccc(F)cc1 [Compound 5, N^3-(4-Fluorophenyl)furo[2,3-c]pyridine-2,3-diamine] | < 200 | 500 to 2000 | 200 to 1000 |
| Nc1oc2cnccc2c1Nc1cccc(Cl)c1 [Compound 8, N^3-(3-Chlorophenyl)furo[2,3-c]pyridine-2,3-diamine] | < 200 | 500 to 2000 | 200 to 1000 |
| COc1cc(Nc2c(N)oc3cnccc23)ccc1Cl [Compound 9, N^3-(4-Chloro-3-methoxyphenyl)furo[2,3-c]pyridine-2,3-diamine] | 200 to 1000 | 500 to 2000 | > 1000 |
| Nc1oc2cnccc2c1Nc1ccc(F)cc1Br [Compound 10, N^3-(2-Bromo-4-fluorophenyl)furo[2,3-c]pyridine-2,3-diamine] | 200 to 1000 | > 2000 | > 1000 |
| Cc1ccc(Nc2c(N)oc3cnccc23)cc1C [Compound 13, N^3-(3,4-Dimethylphenyl)furo[2,3-c]pyridine-2,3-diamine] | < 200 | 500 to 2000 | 200 to 1000 |
| Cc1cccc(Nc2c(N)oc3cnccc23)c1 [Compound 48, N^3-(m-tolyl)Furo[2,3-c]pyridine-2,3-diamine] | < 200 | – | < 200 |
| Nc1oc2c(Cc3ccccc3)nccc2c1Nc1ccc(F)c(Cl)c1 [Compound 86, 7-Benzyl-N^3-(3-chloro-4-fluorophenyl)furo[2,3-c]pyridine-2,3-diamine] | < 200 | – | < 200 |
| Nc1oc2c(-c3ccc(Cl)cc3)nccc2c1Nc1ccc(F)c(Cl)c1 [Compound 91, N^3-(3-Chloro-4-fluorophenyl)-7-(4-chlorophenyl)furo[2,3-c]pyridine-2,3-diamine] | < 200 | – | < 200 |
| C#Cc1cccc(Nc2c(N)oc3c(-c4ccccc4)nccc23)c1 [Compound 92, N^3-(3-Ethynylphenyl)-7-phenylfuro[2,3-c]pyridine-2,3-diamine] | < 200 | – | < 200 |
| COc1ccc(-c2nccc3c(Nc4ccc(F)c(Cl)c4)c(N)oc23)cc1 [Compound 101, N^3-(3-Chloro-4-fluorophenyl)-7-(4-methoxyphenyl)furo[2,3-c]pyridine-2,3-diamine] | < 200 | – | < 200 |
| N#Cc1ccc2c(Nc3ccc(F)c(Cl)c3)c(N)oc2c1 [Compound 112, 2-Amino-3-((3-chloro-4-fluorophenyl)amino)benzofuran-6-carbonitrile] | < 200 | – | < 200 |
| COCCNC(=O)c1ccc(-c2nccc3c(Nc4ccc(F)c(Cl)c4)c(N)oc23)cc1 [Compound 169, 4-(2-Amino-3-((3-chloro-4-fluorophenyl)amino)furo[2,3-c]pyridin-7-yl)-N-(2-methoxyethyl)benzamide] | < 200 | – | < 200 |
| Nc1oc2c(-c3ccc(F)c(F)c3)nccc2c1Nc1ccc(F)c(Cl)c1 [Compound 170, N^3-(3-chloro-4-fluorophenyl)-7-(3,4-difluorophenyl)furo[2,3-c]pyridine-2,3-diamine] | < 200 | – | < 200 |
| N#Cc1ccc(-c2cccc3c(Nc4ccc(F)c(Cl)c4)c(N)sc23)cc1 [Compound 212, 4-(2-Amino-3-((3-chloro-4-fluorophenyl)amino)benzo[b]thiophen-7-yl)benzonitrile] | < 200 | – | < 200 |
